This note sets out measurements from article PMC11420776 (RSC Advances, 2024).

One series relates to SF-539 (CNS cancer). The experiment in a line: NCI 60-cell one-dose antiproliferative screen. The series is classed as cell-based, human. To be noted: one dose 10 μM.
Series [1] concerns MDA-MB-231/ATCC (breast cancer). The experiment in a line: NCI 60-cell one-dose antiproliferative screen. Type of series: cell-based, human. To be noted: one dose 10 μM.
The test system of series [2] is breast cancer cell line MCF7. The experiment in a line: MTT cytotoxicity assay, MCF7. Type of series: cell-based, human.
The test system of another series is ACHN (renal cancer). Kind of series: NCI 60-cell one-dose antiproliferative screen. The series is classed as cell-based, human. To be noted: one dose 10 μM.
For a further series, the system named is OVCAR-8 (ovarian cancer). Kind of series: NCI 60-cell one-dose antiproliferative screen. Type of series: cell-based, human. To be noted: one dose 10 μM.
For a further series, the target named is Pim-1 kinase (Homo sapiens, UniProt P11309). The experiment in a line: Pim-1 kinase inhibition assay. The series is classed as biochemical.
The subject of the next series is COLO-205 (colon cancer). The experiment in a line: NCI 60-cell one-dose antiproliferative screen. Type of series: cell-based, human. To be noted: one dose 10 μM.
Another series deals with HT29 (colon cancer). The experiment in a line: NCI 60-cell one-dose antiproliferative screen. Type of series: cell-based, human. To be noted: one dose 10 μM.
A further series concerns OVCAR-4 (ovarian cancer). Kind of series: NCI 60-cell one-dose antiproliferative screen. Type of series: cell-based, human. To be noted: one dose 10 μM.
Another series relates to UACC-62 (melanoma). Kind of series: NCI 60-cell one-dose antiproliferative screen. The series is classed as cell-based, human. To be noted: one dose 10 μM.
A further series has as its system SK-MEL-2 (melanoma). Kind of series: NCI 60-cell one-dose antiproliferative screen. Type of series: cell-based, human. To be noted: one dose 10 μM.
Another series deals with MDA-MB-435 (melanoma). Kind of series: NCI 60-cell one-dose antiproliferative screen. Type of series: cell-based, human. To be noted: one dose 10 μM.
Series [3] is described as follows: MTT cytotoxicity assay, MCF10a. Type of series: cell-based. To be noted: human, MCF10a normal mammary epithelial cells.
A further series has as its system MALME-3M (melanoma). The experiment in a line: NCI 60-cell one-dose antiproliferative screen. The series is classed as cell-based, human. To be noted: one dose 10 μM.

Chain of Pim-1 kinase (P11309 whole entry): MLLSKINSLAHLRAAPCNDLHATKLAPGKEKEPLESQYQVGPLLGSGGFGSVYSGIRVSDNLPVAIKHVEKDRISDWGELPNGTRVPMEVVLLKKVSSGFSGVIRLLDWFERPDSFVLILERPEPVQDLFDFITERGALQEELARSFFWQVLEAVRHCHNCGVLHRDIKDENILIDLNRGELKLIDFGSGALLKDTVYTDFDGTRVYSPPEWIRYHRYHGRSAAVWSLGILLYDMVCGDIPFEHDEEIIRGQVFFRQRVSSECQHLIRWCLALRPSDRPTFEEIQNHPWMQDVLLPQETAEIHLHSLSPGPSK

Take `COc1ccc(-c2nnc3ccc(NN=Cc4ccc(O)cc4)nn23)cc1` [Compound 4g, 4-((2-(3-(4-Methoxyphenyl)-[1,2,4]triazolo[4,3-b]pyridazin-6-yl)hydrazono)methyl)phenol]: the GI% with SF-539 (CNS cancer) was 63.61%; in series [1] it was 39.44%; with ACHN (renal cancer), 56.52%; in the series with OVCAR-8 (ovarian cancer), 54.60%; in the series with COLO-205 (colon cancer), 43.51%; with HT29 (colon cancer), “— (— GI% is below 15%)”. Further, the GI% in the series on OVCAR-4 (ovarian cancer) was 52.11%; with UACC-62 (melanoma), 41.19%; in the series with SK-MEL-2 (melanoma), 26.79%; in the series with MDA-MB-435 (melanoma), 54.20%; in the series with MALME-3M (melanoma), 35.83%. In addition, the IC50 is 560 ± 30 nM in series [2] (Homo sapiens, MCF7, 72 h, read-out: Cytotoxicity IC50 MCF7) and 283 ± 10 nM on Pim-1 kinase. In [2] (IC50 on normal cells (MCF10a) / IC50 on cancer cells (MCF7)), this compound yielded a Selectivity index of 19.11. In series [3], half-maximal inhibition (IC50 at 72 h) was put at 10700 ± 560 nM.
